From ChEMBL document CHEMBL1201862, “PubChem BioAssay data set” (2004)
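1) Cells in 96-well plates. 2) Compound, 48 h, 5 concentrations. 3) Linear interpolation between surrounding doses. 4) Unreached endpoint = highest concentration. At the GI50, growth is halved.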 The source made the active and inactive calls. Rule as the data show it: active = GI50 up to about 1.1 µM and inactive = higher.

What was measured:
Assay in all cases: NCI anticancer screen, dose series, 48 h
786-0 = system: 786-0
A549 = system: A549
HCC 2998 = system: HCC 2998
HCT-116 = system: HCT-116
HT-29 = system: HT-29
IGROV-1 = system: IGROV-1
LOX IMVI = system: LOX IMVI
M14 = system: M14
NCI-H460 = system: NCI-H460
OVCAR-3 = system: OVCAR-3
OVCAR-5 = system: OVCAR-5
SF-268 = system: SF-268
SF-539 = system: SF-539
SK-MEL-5 = system: SK-MEL-5
SNB-75 = system: SNB-75
UACC-62 = system: UACC-62
ACHN = system: ACHN
SR = system: SR

Measured: GI50

C/C(CC(=O)Nc1cc(C)ccc1C)=N\NC(=O)c1ccncc1
inactive: 786-0 > 100 µM | A549 > 100 µM | HCC 2998 > 100 µM | HCT-116 > 100 µM | HT-29 > 100 µM | IGROV-1 > 100 µM | LOX IMVI > 100 µM | M14 > 100 µM | NCI-H460 > 100 µM | OVCAR-3 > 100 µM | OVCAR-5 > 100 µM | SF-268 > 100 µM | SF-539 > 100 µM | SK-MEL-5 > 100 µM | SNB-75 > 100 µM | UACC-62 > 100 µM

COC1=C(C)C(=O)C2C(C1=O)C(c1ccc(OC)c(OC)c1)[C@H]2C (stereo partly drawn)
inactive: 786-0 > 100 µM | A549 > 100 µM | ACHN > 100 µM | HCC 2998 > 100 µM | HT-29 > 100 µM | IGROV-1 > 100 µM | LOX IMVI > 100 µM | M14 > 100 µM | NCI-H460 > 100 µM | OVCAR-3 > 100 µM | OVCAR-5 > 100 µM | SF-268 > 100 µM | SF-539 > 100 µM | SK-MEL-5 > 100 µM | SNB-75 72.8 µM | SR > 100 µM | UACC-62 > 100 µM

O=C(c1ccncc1)n1nc(-c2ccccc2)c(/N=N/c2ccccc2[N+](=O)[O-])c1-c1ccccc1
inactive: 786-0 76 µM | A549 39.4 µM | HCC 2998 34.7 µM | HCT-116 44.3 µM | HT-29 26.2 µM | IGROV-1 73.8 µM | M14 > 100 µM | OVCAR-3 45 µM | SF-268 82 µM | SF-539 50.8 µM | SK-MEL-5 21.6 µM | SNB-75 15.7 µM | SR 36.6 µM | UACC-62 75.3 µM

COc1cc2c(cc1OC(=O)CC(C)O)C1C(OC2=O)C(OC(C)=O)C=C2CCN(C)[C@H]21 (stereo partly drawn)
inactive: 786-0 17.9 µM | A549 64.3 µM | ACHN 18 µM | HCC 2998 26.2 µM | HCT-116 58.7 µM | HT-29 > 100 µM | IGROV-1 21.5 µM | LOX IMVI 40.4 µM | M14 68.5 µM | NCI-H460 > 100 µM | OVCAR-3 38.4 µM | OVCAR-5 > 100 µM | SF-268 46.3 µM | SF-539 21.4 µM | SK-MEL-5 38.1 µM | SNB-75 16.1 µM | SR 74.5 µM | UACC-62 31.1 µM

C[N+](C)(C)CC(CC(=O)[O-])C1CC1 (stereo not drawn)
inactive: 786-0 > 100 µM | A549 > 100 µM | ACHN > 100 µM | HT-29 > 100 µM | IGROV-1 > 100 µM | LOX IMVI > 100 µM | M14 > 100 µM | NCI-H460 > 100 µM | OVCAR-3 > 100 µM | OVCAR-5 > 100 µM | SF-268 > 100 µM | SF-539 > 100 µM | SK-MEL-5 > 100 µM | SNB-75 > 100 µM | UACC-62 > 100 µM

FC(F)(F)c1cccc(C2SCc3nc4ccccc4n32)c1 (stereo not drawn)
inactive: 786-0 61.5 µM | A549 56.1 µM | ACHN 64 µM | HCC 2998 > 100 µM | HCT-116 38.9 µM | HT-29 > 100 µM | IGROV-1 33.7 µM | OVCAR-3 56 µM | OVCAR-5 6.32 µM | SF-268 90.6 µM | SF-539 26.6 µM | SK-MEL-5 11 µM | SNB-75 29.8 µM | SR 44 µM | UACC-62 > 100 µM

O=C(Cc1nc2c3c(ccc2nc1O)C(=O)c1ccccc1C3=O)C(=O)Nc1ccccc1[N+](=O)[O-]
inactive: 786-0 15.3 µM | A549 49.4 µM | ACHN 15.7 µM | HCC 2998 19.1 µM | HCT-116 26.6 µM | HT-29 19.5 µM | IGROV-1 29.6 µM | LOX IMVI 16.5 µM | M14 16.3 µM | NCI-H460 31.9 µM | OVCAR-3 11.5 µM | OVCAR-5 21.5 µM | SF-268 14.4 µM | SF-539 17.6 µM | SK-MEL-5 18.3 µM | SR 11.7 µM | UACC-62 25.6 µM

N#Cc1nc(-c2cccnc2)oc1N
inactive: 786-0 > 100 µM | ACHN > 100 µM | HCC 2998 > 100 µM | HCT-116 > 100 µM | HT-29 > 100 µM | IGROV-1 > 100 µM | LOX IMVI > 100 µM | NCI-H460 > 100 µM | OVCAR-3 > 100 µM | OVCAR-5 > 100 µM | SF-268 > 100 µM | SK-MEL-5 > 100 µM | SR > 100 µM | UACC-62 > 100 µM

Cc1ccc(NC(=O)C(=O)CC(=O)C2CCOC2=O)c(C)c1 (stereo not drawn)
inactive: 786-0 > 100 µM | A549 > 100 µM | ACHN > 100 µM | HCC 2998 > 100 µM | HCT-116 > 100 µM | HT-29 > 100 µM | IGROV-1 > 100 µM | LOX IMVI > 100 µM | M14 > 100 µM | NCI-H460 > 100 µM | OVCAR-3 > 100 µM | OVCAR-5 > 100 µM | SF-268 > 100 µM | SF-539 > 100 µM | SK-MEL-5 > 100 µM | SNB-75 76.2 µM | UACC-62 > 100 µM
